Patent EP4603105A1, “PHARMACEUTICAL COMPOSITION CONTAINING CYCLIC COMPOUND HAVING SELECTIVE KRAS INHIBITORY EFFECT AGAINST HRAS AND NRAS” (CHUGAI SEIYAKU KABUSHIKI KAISHA, priority 2022, dated 2024)
Where a SMILES comes first, the peptide text is derived from it. Bridges are numbered along the chain shown (N, C = ends). [ ]: non-standard residue; d: D form. The star is where a group is joined. hPhe(3-Cl-4-CF3) = N[C@@H](CCc1ccc(C(F)(F)F)c(Cl)c1)C(=O)O; NPrPhe(4-CF3) = CCCN[C@@H](Cc1ccc(C(F)(F)F)cc1)C(=O)O; NPrPhe(4-Me) = CCCN[C@@H](Cc1ccc(C)cc1)C(=O)O; NEtPhe(4-Me) = CCN[C@@H](Cc1ccc(C)cc1)C(=O)O; NMePhe(4-Me) = CN[C@@H](Cc1ccc(C)cc1)C(=O)O; NMeGly(cPent) = CN[C@H](C(=O)O)C1CCCC1; Pro(4,4-F2) = O=C(O)[C@@H]1CC(F)(F)CN1; NMeD = CN[C@@H](CC(=O)O)C(=O)O; NMeL = CN[C@@H](CC(C)C)C(=O)O; Pip = O=C(O)[C@@H]1CCCCN1; Morpholide = C1CN(*)CCO1; NMeA = CN[C@@H](C)C(=O)O; Ac5c = NC1(C(=O)O)CCCC1; Aze = O=C(O)[C@@H]1CCN1; Ac4c = NC1(C(=O)O)CCC1; NEtG = CCNCC(=O)O; Sar = CNCC(=O)O

Columns and labels:
[1] = target: GDP-bound NRAS wild-type protein (Homo sapiens, UniProt P01111); assay: Binding to NRAS by surface plasmon resonance (SPR), KD and KD ratio to KRAS
GDP-bound NRAS wild-type protein, sequence (P01111 whole entry): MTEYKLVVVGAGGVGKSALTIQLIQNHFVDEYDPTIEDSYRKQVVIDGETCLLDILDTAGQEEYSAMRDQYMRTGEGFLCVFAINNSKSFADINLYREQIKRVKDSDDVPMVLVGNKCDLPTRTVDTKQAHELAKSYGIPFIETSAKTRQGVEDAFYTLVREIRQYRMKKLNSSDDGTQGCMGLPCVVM
Method in brief: (§1)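 GDP-loaded biotinylated Avi-tag RAS proteins (E. coli-expressed) captured on a Biotin CAPture chip at ~100–300 RU; single-cycle kinetics at 30°C, 100 µL/min, 75 s injections of rising compound concentrations. HBS pH 7.4 running buffer with 1 mM DTT, 10 mM MgCl2, 10 µM GDP, 4% DMSO. KD from 1:1 binding fit.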

HRAS wild-type protein = HRAS wild-type protein (Homo sapiens, UniProt P01112); assay: Binding to HRAS by surface plasmon resonance (SPR), KD and KD ratio to KRAS
HRAS wild-type protein, sequence (P01112 whole entry): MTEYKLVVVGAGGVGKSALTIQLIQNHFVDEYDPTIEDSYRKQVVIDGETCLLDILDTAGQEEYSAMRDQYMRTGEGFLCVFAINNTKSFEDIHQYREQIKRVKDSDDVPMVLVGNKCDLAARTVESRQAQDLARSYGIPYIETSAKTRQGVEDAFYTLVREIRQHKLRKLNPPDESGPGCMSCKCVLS
Method in brief: as §1

[2] = system: human lung cancer strain NCI-H441; format: cell-based
Method in brief: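 Readout: […] after the ATP-based reagent. Compound: serial dilutions in dimethyl sulfoxide.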

[3] = ratio of KD for GDP-bound NRAS wild-type protein to KD for KRAS
[4] = ratio of KD for HRAS wild-type protein to KD for KRAS
[5] = ratio of the KD value with respect to GDP-bound NRAS wild-type protein to the KD value with respect to KRAS
[6] = ratio of the KD value with respect to HRAS wild-type protein to the KD value with respect to KRAS
[7] = ratio of KD value for GDP-bound NRAS wild-type protein to KD value for KRAS (SPR)
[8] = ratio of KD value for HRAS wild-type protein to KD value for KRAS (SPR)

SMILES	NRAS /KRAS [1, 3]	HRAS /KRAS (HRAS wild-type protein; [4])	IC50 [2] [nM]	NRAS /KRAS [1, 5]	HRAS /KRAS (HRAS wild-type protein; [6])	NRAS /KRAS [1, 7]	HRAS /KRAS (HRAS wild-type protein; [8])
CCCN1C(=O)[C@@H]2CCN2C(=O)[C@H](C)N(C)C(=O)[C@H]([C@@H](C)CC)NC(=O)[C@H](CC(C)C)N(C)C(=O)C[C@@H](C(=O)N2CCOCC2)N(C)C(=O)[C@H](C2CCCC2)N(C)C(=O)C2(CCCC2)NC(=O)[C@H](C)NC(=O)[C@H](CCc2ccc(C(F)(F)F)c(Cl)c2)NC(=O)CN(C)C(=O)[C@@H]1Cc1ccc(C(F)(F)F)cc1 [PP0153] ([NMeL]I[NMeA][Aze][NPrPhe(4-CF3)][Sar][hPhe(3-Cl-4-CF3)]A[Ac5c][NMeGly(cPent)][NMeD]-Morpholide; lactam N-11)	C (A compound having a KD ratio of 0.1 or more and less than 3 is denoted as C)	C (A compound having a KD ratio of 0.1 or more and less than 3 is denoted as C)	11.6				
CCCN1C(=O)CN(C)C(=O)CN(C)C(=O)[C@H]([C@@H](C)CC)NC(=O)[C@H](CC(C)C)N(C)C(=O)C[C@@H](C(=O)N2CCOCC2)N(C)C(=O)[C@H](C2CCCC2)N(C)C(=O)C2(CCCC2)NC(=O)[C@@H]2CCCN2C(=O)[C@H](CCc2ccc(C(F)(F)F)c(Cl)c2)NC(=O)CN(CC)C(=O)[C@@H]1Cc1ccc(C)cc1 [PP0066] ([NMeL]I[Sar][Sar][NPrPhe(4-Me)][NEtG][hPhe(3-Cl-4-CF3)]P[Ac5c][NMeGly(cPent)][NMeD]-Morpholide; lactam N-11)	B (a compound having 3 or more and less than 10 is denoted as B)	C (A compound having a KD ratio of 0.1 or more and less than 3 is denoted as C)	26.1				
CC[C@H](C)[C@@H]1NC(=O)[C@H](CC(C)C)N(C)C(=O)C[C@@H](C(=O)N2CCOCC2)N(C)C(=O)[C@H](C2CCCC2)N(C)C(=O)C2(CCCC2)NC(=O)[C@@H]2CCCN2C(=O)[C@H](CCc2ccc(C(F)(F)F)c(Cl)c2)NC(=O)CN(CC)C(=O)[C@H](Cc2ccc(C)cc2)N(C)C(=O)CN(C)C(=O)CN(C)C1=O [PP0025] ([NMeL]I[Sar][Sar][NMePhe(4-Me)][NEtG][hPhe(3-Cl-4-CF3)]P[Ac5c][NMeGly(cPent)][NMeD]-Morpholide; lactam N-11)	C (A compound having a KD ratio of 0.1 or more and less than 3 is denoted as C)	C (A compound having a KD ratio of 0.1 or more and less than 3 is denoted as C)	27.5				
C#CC[C@H]1C(=O)N[C@@H]([C@@H](C)CC)C(=O)N(C)CC(=O)N(C)[C@H]2CCCCCN(C2=O)[C@@H](Cc2ccc(C(F)(F)F)cc2)C(=O)N(C)CC(=O)N[C@@H](CCc2cc(F)c(C(F)(F)F)c(F)c2)C(=O)N2C[C@H](OCC)C[C@H]2C(=O)NC2(CCC2)C(=O)N(C)[C@@H](C2CCCC2)C(=O)N(C)[C@H](C(=O)N2CCOCC2)CC(=O)N1C [PP0681]			24.2	B (a compound having 3 or more and less than 10 is denoted as B)	B (a compound having 3 or more and less than 10 is denoted as B)		
CCCOC[C@H]1C(=O)N[C@@H]([C@@H](C)CC)C(=O)N(C)CC(=O)N(C)[C@H]2C/C=C\CCN(C2=O)[C@@H](Cc2ccc(C(F)(F)F)cc2)C(=O)N(C)CC(=O)N[C@@H](CCc2cc(F)c(C(F)(F)F)c(F)c2)C(=O)N2C[C@H](OCC)C[C@H]2C(=O)NC2(CCC2)C(=O)N(C)[C@@H](C2CCCC2)C(=O)N(C)[C@H](C(=O)N(C)CCC)CC(=O)N1C [PP1668]			5.3			A (a compound having 10 or more and less than 20 is denoted as A)	A (a compound having 10 or more and less than 20 is denoted as A)
CCCN1C(=O)[C@@H]2CCN2C(=O)[C@H](C)N(C)C(=O)[C@H]([C@@H](C)CC)NC(=O)[C@H](CC(C)C)N(C)C(=O)C[C@@H](C(=O)N2CCOCC2)N(C)C(=O)[C@H](C2CCCC2)N(C)C(=O)C2(CCCC2)NC(=O)[C@@H]2CCCCN2C(=O)[C@H](CCc2ccc(C(F)(F)F)c(Cl)c2)NC(=O)CN(C)C(=O)[C@@H]1Cc1ccc(C(F)(F)F)cc1 [PP0284] ([NMeL]I[NMeA][Aze][NPrPhe(4-CF3)][Sar][hPhe(3-Cl-4-CF3)][Pip][Ac5c][NMeGly(cPent)][NMeD]-Morpholide; lactam N-11)	C (A compound having a KD ratio of 0.1 or more and less than 3 is denoted as C)	B (a compound having 3 or more and less than 10 is denoted as B)	29				
CCO[C@@H]1C[C@H]2C(=O)NC3(CCC3)C(=O)N(C)[C@@H](C3CCCC3)C(=O)N(C)[C@H](C(=O)N3CCCC3)CC(=O)N(C)[C@@H](CC)C(=O)N[C@@H]([C@@H](C)CC)C(=O)N(C)CC(=O)N(C)[C@H]3C/C=C\CCN(C3=O)[C@@H](Cc3ccc(C(F)(F)F)cc3)C(=O)N(C)CC(=O)N[C@@H](CCc3cc(F)c(C(F)(F)F)c(F)c3)C(=O)N2C1 [PP1090]	AA (a compound having 20 or more is denoted as AA)	A (a compound having 10 or more and less than 20 is denoted as A)	20.9				
CCCN1C(=O)CN(C)C(=O)CNC(=O)[C@H]([C@@H](C)CC)NC(=O)[C@H](CC(C)C)N(C)C(=O)C[C@@H](C(=O)N(C)C)NC(=O)[C@H](C2CCCC2)N(C)C(=O)C2(CCC2)NC(=O)[C@@H]2CC(F)(F)CN2C(=O)[C@H](CCc2ccc(C(F)(F)F)c(Cl)c2)NC(=O)CN(C)C(=O)[C@@H]1Cc1ccc(C(F)(F)F)cc1 [PP0364] ([NMeL]IG[Sar][NPrPhe(4-CF3)][Sar][hPhe(3-Cl-4-CF3)][Pro(4,4-F2)][Ac4c][NMeGly(cPent)]D-NMe2; lactam N-11)	B (a compound having 3 or more and less than 10 is denoted as B)	B (a compound having 3 or more and less than 10 is denoted as B)	103				
CCO[C@@H]1C[C@H]2C(=O)NC3(CCC3)C(=O)N(C)[C@@H](C3CCCC3)C(=O)N(C)[C@H](C(=O)N(C)C)CC(=O)N(C)[C@@H](COC)C(=O)N[C@@H]([C@@H](C)CC)C(=O)NCC(=O)N(C)[C@H]3CCCCCN(C3=O)[C@@H](Cc3ccc(C(F)(F)F)cc3)C(=O)N(C)CC(=O)N[C@@H](CCc3cc(F)c(C(F)(F)F)c(F)c3)C(=O)N2C1 [PP0859]	B (a compound having 3 or more and less than 10 is denoted as B)	B (a compound having 3 or more and less than 10 is denoted as B)	22.4				
CCC[C@H]1C(=O)N[C@@H]([C@@H](C)CC)C(=O)N(C)CC(=O)N(C)[C@H]2C/C=C\CCN(C2=O)[C@@H](Cc2ccc(C(F)(F)F)cc2)C(=O)N(C)CC(=O)N[C@@H](CCc2cc(F)c(Cl)c(F)c2)C(=O)N2C[C@H](OCC)C[C@H]2C(=O)NC2(CC(C)(C)C2)C(=O)N(C)[C@@H](C2CCCC2)C(=O)N(C)[C@H](C(=O)N(C)C)CC(=O)N1C [PP1758]			6			AA (a compound having 20 or more is denoted as AA)	A (a compound having 10 or more and less than 20 is denoted as A)
CCCN1C(=O)CN(C)C(=O)CNC(=O)[C@H]([C@@H](C)CC)NC(=O)[C@H](CC(C)C)N(C)C(=O)C[C@@H](C(=O)N(C)C)NC(=O)[C@H](C2CCCC2)N(C)C(=O)C2(CCC2)NC(=O)[C@@H]2CCCN2C(=O)[C@H](CCc2ccc(C(F)(F)F)c(Cl)c2)NC(=O)CN(C)C(=O)[C@@H]1Cc1ccc(C(F)(F)F)cc1 [PP0362] ([NMeL]IG[Sar][NPrPhe(4-CF3)][Sar][hPhe(3-Cl-4-CF3)]P[Ac4c][NMeGly(cPent)]D-NMe2; lactam N-11)	B (a compound having 3 or more and less than 10 is denoted as B)	B (a compound having 3 or more and less than 10 is denoted as B)	149				
CC[C@H](C)[C@@H]1NC(=O)[C@H](C)N(C)C(=O)C[C@@H](C(=O)N2CCOCC2)N(C)C(=O)[C@H](C2CCCC2)N(C)C(=O)C2(CCCC2)NC(=O)[C@@H]2CCCN2C(=O)[C@H](CCc2ccc(C(F)(F)F)c(Cl)c2)NC(=O)CN(C)C(=O)[C@H](Cc2ccc(C)cc2)N(CC)C(=O)[C@@H]2CCN2C(=O)[C@H](C)N(C)C1=O [PP0007] ([NMeA]I[NMeA][Aze][NEtPhe(4-Me)][Sar][hPhe(3-Cl-4-CF3)]P[Ac5c][NMeGly(cPent)][NMeD]-Morpholide; lactam N-11)	C (A compound having a KD ratio of 0.1 or more and less than 3 is denoted as C)	C (A compound having a KD ratio of 0.1 or more and less than 3 is denoted as C)	4.8				
CC[C@H](C)[C@@H]1NC(=O)[C@H](CC(C)C)N(C)C(=O)C[C@@H](C(=O)N(C)CC)N(C)C(=O)[C@H](C2CCCC2)N(C)C(=O)C2(CCC2)NC(=O)[C@@H]2C[C@H](C)CN2C(=O)[C@H](CCc2ccc(C(F)(F)F)c(OC)c2)NC(=O)CN(C)C(=O)[C@H](Cc2ccc(C)cc2)N2CC/C=C\C[C@@H](C2=O)N(C)C(=O)CN(C)C1=O [PP1904]			18.3	A (a compound having 10 or more and less than 20 is denoted as A)	B (a compound having 3 or more and less than 10 is denoted as B)		
